What was measured:
[1] = system: adjuvant arthritic rats; test: Adjuvant arthritis model, Example 3 (rhuIL-1ra subcutaneous infusion, methotrexate dose range); type: in vivo, Male Lewis rats; set-up: inhibition of final paw weight: dose or concentration left out as unconfirmed; conditions: rhuIL-1ra alone
Procedure: (§1) Male Lewis rats (Charles River, Portage, Mich.) (5-7/group) weighing at least 250-300 g were cannulated in the subcutis of the dorsal back and allowed to recover for several days. They were then placed in infusion cages and acclimated for at least 4 days prior to initiating adjuvant injections. On day-0, all rats were injected with 100 μl of Freunds Complete Adjuvant (Sigma Chemical Co., St. […] Body weights were taken on day 0 and every other day from day 8 to termination on day 15. Caliper measurements and clinical scoring were done on day 8 and every other day until termination. At this time the animals' body, paw and spleen weights were determined.

[2] = system: adjuvant arthritic rats; test: Adjuvant arthritis model, Example 1 (rhuIL-1ra IV infusion, oral methotrexate); type: in vivo, Male Lewis rats; conditions: rhuIL-1ra 5 mg/kg/hr continuous IV infusion from day 8; methotrexate 0.06 mg/kg oral days 0-14; termination day 15
Procedure: Male Lewis rats (Charles River, Portage, Mich.) (5 per group) weighing at least 200 g were cannulated with jugular catheters and allowed to recover for several days. They were then placed in infusion cages and acclimated for a week prior to initiating adjuvant injections. On day 0, all treated rats were injected with 100 μl of Freunds Complete Adjuvant (Sigma Chemical Co., St. […] On day 8, treatment with E. coli-derived human recombinant IL-1 receptor antagonist (prepared generally in accordance with the teachings of U.S. Pat. […] Body weights were taken on day 0 and every other day from day 8 to termination on day 15. Caliper measurements and clinical scoring were done on day 8 and every other day until termination. At this time the animals' body, paw and spleen weights were determined.

[3] = system: adjuvant arthritic rats; test: Adjuvant arthritis model, first Example 4 (rhuIL-1ra 5 mg/kg/hr infusion, methotrexate dose range); type: in vivo, Male Lewis rats; conditions: rhuIL-1ra alone
Procedure: as §1

[4] = system: adjuvant arthritic rats; test: Adjuvant arthritis model, Example 2 (rhuIL-1ra IV infusion, oral methotrexate); type: in vivo, Male Lewis rats; conditions: rhuIL-1ra 5 mg/kg/hr continuous IV infusion from day 8; methotrexate 0.06 mg/kg oral days 0-14; termination day 15
Procedure: as §1, with “200” for “250-300”, “with jugular catheters” for “in the subcutis of the dorsal back”, “one week” for “4 days”

[5] = system: EAE model; test: EAE model, second Example 4 (integrated clinical score, weight gain); type: in vivo, Female Strain 13 guinea pigs

With “rhuIL-1ra: E. coli-derived human recombinant IL-1 receptor antagonist (SEQ ID NO:2), in citrate buffer formulation” the “inhibition of bone resorption, histologic evaluation of ankle joints” value [1] was 53%, the “inhibition of inflammation, histologic evaluation of ankle joints” value [1] was 8% and the “inhibition of swelling, ankle joint diameter over time (area under the curve)” value ([1]; 5 mg/ml/hr sc infusion) was 6%. For the same substance, the “inhibition of final paw weight” value ([1]; continuous subcutaneous infusion, days 8-15) was 6%, the “inhibition of arthritis (paw swelling)” value [2] was 57% and the “inhibition of body weight change” value [2] was 25%. The “inhibition of splenomegaly (spleen weight)” value [2] was “no significant benefit”, the “inhibition of bone resorption, histologic evaluation of ankle joints” value [3] was 53% and the “inhibition of inflammation, histologic evaluation of ankle joints” value [3] was 8%. The “inhibition of swelling, ankle joint diameter over time (area under the curve)” value ([3]; 5 mg/kg/hr infusion) was 6%, the “inhibition of final paw weight” value ([3]; continuous subcutaneous infusion 5 mg/kg/hr, days 8-15) was 6% and the “inhibition of body weight change” value [4] was “no inhibition”. For the same substance, the “inhibition of paw swelling” value [4] was 22%, the inhibition of splenomegaly [4] was 24% and the “attenuation of clinical symptoms/signs (integrated clinical score)” value ([5]; rhuIL-1ra 10 mg/kg s.c. 3x a day from day 0, alone or with r-metIFN-con1 0.03 mg/kg s.c.) was 49%. For the same substance, the “attenuation of clinical symptoms/signs (integrated clinical score)” value ([5]; rhuIL-1ra 100 mg/kg s.c. 3x a day from day 0, alone or with r-metIFN-con1 0.03 mg/kg s.c.) was 53%.
